Measured values published in article PMC11137008, “Cryo-EM analysis reveals human SID-1 transmembrane family member 1 dynamics underlying lipid hydrolytic activity” (Communications Biology, 2024).

What was measured:
[1] = biological target: T1, human SIDT1 (hSIDT1) (Homo sapiens, UniProt Q9NXL6); assay: TLC fluorescence ceramidase assay; type: biochemical; details: labelled compound; 10 mM methyl beta-cyclodextrin required (cholesterol depletion); pH 8.0, 0.01% GDN, 37 °C, 3 h
T1 construct: full length; expressed in Expi293F cells by baculovirus; digitonin extraction, GDN micelle; N-glycosylated homodimer
T1 sequence (Q9NXL6 20-827): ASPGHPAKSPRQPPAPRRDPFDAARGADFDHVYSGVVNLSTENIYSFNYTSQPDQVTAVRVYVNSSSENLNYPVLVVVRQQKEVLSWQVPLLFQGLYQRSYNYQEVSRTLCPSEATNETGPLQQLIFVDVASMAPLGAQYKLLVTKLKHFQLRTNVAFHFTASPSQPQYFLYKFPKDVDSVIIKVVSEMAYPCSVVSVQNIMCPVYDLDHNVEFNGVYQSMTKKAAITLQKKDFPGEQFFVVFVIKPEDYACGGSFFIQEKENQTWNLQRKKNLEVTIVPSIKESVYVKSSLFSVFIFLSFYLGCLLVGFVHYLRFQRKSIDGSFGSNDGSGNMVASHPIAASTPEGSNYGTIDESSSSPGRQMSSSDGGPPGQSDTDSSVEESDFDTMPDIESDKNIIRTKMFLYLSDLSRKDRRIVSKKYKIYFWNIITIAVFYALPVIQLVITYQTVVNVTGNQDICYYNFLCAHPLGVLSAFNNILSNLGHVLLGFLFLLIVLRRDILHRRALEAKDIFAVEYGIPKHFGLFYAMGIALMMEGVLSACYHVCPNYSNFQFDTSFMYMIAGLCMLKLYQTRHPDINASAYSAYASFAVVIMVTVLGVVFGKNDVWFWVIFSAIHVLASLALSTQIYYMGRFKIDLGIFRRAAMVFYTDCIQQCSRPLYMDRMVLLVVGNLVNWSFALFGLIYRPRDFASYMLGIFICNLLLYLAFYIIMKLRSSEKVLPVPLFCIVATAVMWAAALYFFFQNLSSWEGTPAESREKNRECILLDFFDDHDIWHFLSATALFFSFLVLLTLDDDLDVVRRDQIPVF

[2] = biological target: T1, human SIDT1 (hSIDT1); assay: cryo-EM structure, […] A; GC/MS of purified protein; type: binding; details: endogenous, co-purified; allosteric; TM5/TM6/TM7 pocket at intracellular side; two molecules per protomer described (CLR1, CLR2); GDN, pH 6.0
[3] = biological target: T2, human SIDT1 full length WT (Homo sapiens, UniProt Q9NXL6 1-827); assay: EMSA; pH 7.0; EMSA: 1 or 2 uM 46 bp dsRNA with 0-8 uM hSIDT1 (mutants 1-5 uM, 1 uM dsRNA, pH 5.0), 4 C, 2 h; electrophoresis in Tris-acetate buffer at pH 4.0-7.0; protein stock in 20 mM MES pH 6.0, 150 mM NaCl, 0.01% GDN; details: protein: recombinant; tags: C-terminal TEV site, FLAG, His10; chain copies: 2; blunt (implied by 46 bp)
T2 sequence: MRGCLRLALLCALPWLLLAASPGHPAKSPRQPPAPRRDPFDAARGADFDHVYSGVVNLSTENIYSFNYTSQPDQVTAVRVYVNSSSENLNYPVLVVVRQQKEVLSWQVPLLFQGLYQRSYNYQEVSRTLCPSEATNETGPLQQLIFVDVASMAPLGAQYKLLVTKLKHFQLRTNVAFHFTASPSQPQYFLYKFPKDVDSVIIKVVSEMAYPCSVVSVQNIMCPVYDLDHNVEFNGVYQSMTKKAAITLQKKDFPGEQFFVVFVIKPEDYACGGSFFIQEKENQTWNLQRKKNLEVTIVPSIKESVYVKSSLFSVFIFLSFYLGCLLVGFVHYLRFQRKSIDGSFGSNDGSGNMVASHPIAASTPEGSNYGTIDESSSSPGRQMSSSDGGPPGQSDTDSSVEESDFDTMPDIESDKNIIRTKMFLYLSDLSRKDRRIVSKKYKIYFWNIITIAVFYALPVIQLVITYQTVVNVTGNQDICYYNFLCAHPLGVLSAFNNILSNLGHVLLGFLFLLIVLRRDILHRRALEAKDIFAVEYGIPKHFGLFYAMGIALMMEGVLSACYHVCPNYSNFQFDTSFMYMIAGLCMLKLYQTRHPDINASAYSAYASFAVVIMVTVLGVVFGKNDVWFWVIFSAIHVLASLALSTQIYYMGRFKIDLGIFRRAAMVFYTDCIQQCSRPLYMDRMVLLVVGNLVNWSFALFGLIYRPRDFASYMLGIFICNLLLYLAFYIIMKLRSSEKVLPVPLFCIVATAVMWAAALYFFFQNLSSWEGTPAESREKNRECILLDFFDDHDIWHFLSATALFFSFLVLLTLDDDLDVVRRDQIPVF

Molecule | TLC fluorescence ceramidase assay [1] | also measured
CCCCCCCCCCCCC/C=C/[C@@H](O)[C@H](CO)NC(=O)CCCCCCCCCCCNc1ccc([N+](=O)[O-])c2nonc12 [C12 NBD ceramide] | SIDT1 exhibited a ceramidase activity only in the presence of methyl β-cyclodextrin | –
CC(C)CCC[C@@H](C)[C@H]1CC[C@H]2[C@@H]3CC=C4C[C@@H](O)CC[C@]4(C)[C@H]3CC[C@]12C [cholesterol] | – | cryo-EM structure, 2.77 A; GC/MS of purified protein [2]: endogenous cholesterol is assumed to be co-purified with SIDT1
CCCCCCCCCCCCCCC[C@@H](O)[C@H](CO)NC(=O)CCCCCCCCCCCNc1ccc([N+](=O)[O-])c2nonc12 [C12 NBD dihydroceramide] | SIDT1 also harbors a ceramidase activity to ceramide and dihydroceramide | –
46 bp dsRNA (dsRNA) RNA 1: AUUCUGCGGAUUAUUUGGCAAAGGAAGCAUUGACACAUGCGCCAAU RNA 2: AUUGGCGCAUGUGUCAAUGCUUCCUUUGCCAAAUAAUCCGCAGAAU | – | binding result [3]: binds
